PMC8146289, “Tissue Distribution of Oleocanthal and Its Metabolites after Oral Ingestion in Rats” (Antioxidants, 2021)

Experiments:
[1] = Tissue distribution of OLC and its metabolites in rats after oral gavage of OLC-enriched refined olive oil (LC-ESI-LTQ-Orbitrap-MS); assay type: in vivo, Male Sprague Dawley rats; settings: for plasma and tissues in which the compound was detected: liver, kidney, spleen, lungs, heart, brain, thyroid, skin, 1, 2, 4.5 h after oral ROO with OLC; for decrease of OLC concentration in the intestine / decrease of OLC concentration in the stomach: relative to the maximum at 1 h; for decrease of OLC concentration in the stomach: stomach samples
Method: The studies were conducted following a protocol approved by the Animal Experimentation Ethics Committee of the University of Barcelona, Spain (trial no. CEEA 124/16) and Generalitat de Catalunya (no. 6435). Male Sprague Dawley rats (body weight 249 ± 8 g) were purchased from Envigo RMS Spain S.L. (Sant Feliu de Codines, Barcelona, Spain). The animals were acclimatized in animal housing in an air-conditioned room at 22 ± 2 °C under a 12 h/12 h cycle of light and darkness and given free access to a commercial diet (Teklad 2014, Envigo RMS Spain S.L.) and water for at least 10 days before the study. The rats were fasted for over 12 h before the experiments but were allowed free access to water.
Before the distribution experiment, the ROO (vehicle) was analyzed by LC-ESI-LTQ-Orbitrap-MS to make sure it was free of phenolic compounds. The liquid–liquid extraction of phenolic compounds of ROO was performed following the previously described procedures. The chromatographic and mass spectrometer conditions were the same as those used for the identification of metabolites (Section 2.3). After verifying that the ROO was free of phenols, OLC was added to obtain a final concentration of 0.3 mg/mL. The OLC concentration was chosen while taking into account both the OLC concentration in commercial EVOO (~300 mg/kg) and the daily ingestion of EVOO recommended by the European Food Safety Authority of at least 5 mg of hydroxytyrosol and its derivatives per 20 g of olive oil.
The rats were divided into four groups—a control group (no administration) and three dosed groups—to study the distribution of OLC at three different time points: 1, 2 and 4.5 h post-administration. On treatment day, the rats received the ROO containing OLC by oral gavage (2.5 mL/300 g body weight). The volume for gavage administration was established following a good practice guide for substance administration and was lower than the maximum volume of lipid vehicles per kg of rat body weight that prevented elevated plasma corticosterone levels.
The rats were anesthetized with isoflurane (IsoFloR, Veterinaria Esteve, Barcelona, Spain) and euthanized by exsanguination via cardiac puncture at 1, 2 or 4.5 h after ROO ingestion. The control group was maintained under fasting conditions without olive oil ingestion and then similarly euthanized. The blood was collected in EDTA tubes, and plasma samples were obtained by centrifugation (3000× g for 10 min at 4 °C) and stored at −80 °C until analysis. Different tissues and organs (heart, liver, spleen, lungs, kidney, brain, thyroid, stomach, small intestine and skin) were removed from the rats and placed in pre-weighed tubes. The small intestine samples consisted of a pool of duodenum, jejunum and ileum segments, but the main region used was the jejunum. The procedure was to locate the plica duodenocolica and, from there up to about 5 cm of the intestine before reaching the cecum, to remove it from the animal. The collected tissues were washed with physiological serum at 37 °C and placed between absorbent paper to remove the rest of the serum. In the case of the intestine, the luminal contents were first removed by applying pressure with the index finger and thumb, and then the lumen was washed by perfusing with the physiological serum at 37 °C. It was then placed between absorbent paper to remove the remains of the washings. In order to avoid compound oxidation, the collected tissues were kept on ice at all times. Finally, the samples were weighed and stored at −80 °C until analysis. For each group, four animals were used.
The tissues were homogenized with a small tissue disruptor (T 10 basic ULTRA-TURRAX®, IKA laboratory technology, Staufen Germany) in a 1:1 ratio (w/v) with water:ACN (1:1 (v/v) with 0.1% ascorbic acid). The samples were sonicated for 5 min in an ice bath and shaken for 1 min (Vortex-Genie 2). Each homogenate was centrifuged for 10 min (11,000× g at 4 °C). […]

[2] = design: method as in PMID 33348608; settings: in vivo, rats; cited from earlier work
[3] = design: method as in doi:10.1016/j.foodchem.2009.07.017; settings: cited from earlier work
[4] = plasma, stomach, small intestine

Row | SMILES | detection in plasma ([1]; plasma) | plasma and tissues in which the compound was detected [1, 4] | time of Cmax (highest concentration among the three sample times 1, 2, 4.5 h) ([1]; small intestine) [h] | decrease of OLC concentration in the intestine ([1]; small intestine, 2 h post-ingestion) [%] | decrease of OLC concentration in the intestine ([1]; small intestine, 4.5 h post-ingestion) [%] | time of Cmax (highest concentration among the three sample times 1, 2, 4.5 h) ([1]; stomach) [h] | decrease of OLC concentration in the stomach ([1]; 2 h post-ingestion, ROO with 0.3 mg/mL OLC by oral gavage 2.5 mL/300 g body weight) [%] | decrease of OLC concentration in the stomach ([1]; 4.5 h post-ingestion) [%] | intestinal absorption [2] [%] | concentration in the aqueous phase (partition between the oily and aqueous phase) ([3]; digestion of dietary lipids, lipid–water emulsion) [%] | stability in the gastric phase ([3]; in vitro digestion study)
1 | C/C=C(/C=O)[C@@H](CC=O)CC(=O)OCCc1ccc(O)cc1 [OLC, oleocanthal] | not found in the plasma | only detected in the stomach and small intestine samples | 1 | 16 | 33 | 1 | 36 | 74 | 16 | 68.7 | good OLC stability in the gastric phase
2 | OCCc1ccc(O)cc1 [TY, tyrosol] | – | only detected in the stomach and intestinal samples | 1 | – | – | 1 | – | – | – | – | –
